{"source": "patent US8012983B2", "about": "“Substituted triazolopyrazines useful for the treatment of degenerative and inflammatory diseases” (Galapagos NV, priority 2008, dated 2011)", "key": {"[1]": {"system": "MMP1 expression by activated synovial fibroblasts (RASFs)", "assay": "'MMP assay': complex trigger-induced MMP1 expression by synovial fibroblasts (MMP1 ELISA)", "format": "cell-based", "conditions": "Homo sapiens, Fibroblast; complex trigger activated SFs, 48 hrs, FIG. 3; read-out: IC50 value, reduction of MMP1 expression by SFs", "experimental": "A 384-well format ELISA for measurement of MMP1 is developed. Various primary antibodies are tested, as well as various ELISA protocols. The following protocol is developed and validated to measure MMP1 levels in SF supernatant in 384 well plates: white Lumitrac 600 384 well plates (Greiner) are coated with 2 μg/mL anti-MMP1 antibody MAB1346 (Chemicon). The antibody is diluted in buffer 40 (1.21 g Tris base (Sigma), 0.58 g NaCl (Calbiochem) and 5 ml 10% NaN3 (Sigma) in 1 L milliQ water and adjusted to pH 8.5). After overnight incubation at 4° C., plates are washed with PBS (80 g NaCl, 2 g KCl (Sigma), 11.5 g Na2HPO4.7H2O and 2 g KH2PO4 in 10 L milliQ; pH 7.4) and blocked with 100 μL/well Casein buffer (2% Casein (VWR International) in PBS). Next day, casein buffer is removed from ELISA plates and replaced by 50 μL/well EC buffer (4 g casein, 2.13 g Na2HPO4 (Sigma), 2 g bovine albumin (Sigma), 0.69 g NaH2PO4.H2O (Sigma), 0.5 g CHAPS (Roche), 23.3 g NaCl, 4 ml 0,5 M EDTA pH 8 (Invitrogen), 5 ml 10% NaN3 in 1 L milliQ and adjusted to pH 7.0). 0.25 mM DTT (Sigma) is added to the thawed samples plates. After removal of the EC buffer, 20 μL of sample is transferred to the ELISA plates. After overnight incubation at 4° C. plates are washed twice with PBS and once with PBST (PBS with 0.05% Tween-20 (Sigma)) and incubated with 35 μL/well biotinylated anti-MMP1 antibody solution (R&D). This secondary antibody is diluted in buffer C (0.82 g NaH2PO4.H2O, 4.82 g Na2HPO4, 46.6 g NaCl, 20 g bovine albumin and 4 mL 0,5M EDTA pH 8 in 2 L milliQ and adjusted to pH 7.0) at a concentration of 5 μg/mL. After 2 h of incubation at RT, plates are washed as described above and incubated with 50 μL/well streptavidin-HRP conjugate (Biosource). Streptavidin-HRP conjugate is diluted in buffer C at a concentration of 0.25 μg/mL. After 45 min, plates are washed as described above and incubated for 5 min with 50 μL/well BM Chem ELISA Substrate (Roche). Readout is performed on the Luminoscan Ascent Luminometer (Labsystems) with an integration time of 200 msec or with an Envision reader (Perkin Elmer).\nThe increase of MMP1 expression by SFs upon treatment with cytokines relevant in the field of RA (TNF-α, IL1β and OSM) or a combination thereof is shown in FIG. 2 as white bars. For this experiment, SFs are seeded in 96 well plates, 3,000 cells/well. 24 h later, the medium is changed to M199 medium supplemented with 1% FBS. One day after the medium change, cytokines or combinations thereof are added to the cultures, each cytokine being added to a final concentration of 25 ng/mL. 72 h after cytokine addition, the supernatant is collected and processed in the MMP1 ELISA as described in the protocol given above. In parallel with this experiment, SFs are triggered, using the same protocol, with the supernatant of THP1 cells (2-fold diluted in M199+1% FBS) treated with the same cytokines or combinations of cytokines for 48 h in M199 medium+1% FBS. The induction of the MMP1 expression by SFs triggered with the supernatants of TNF-α-treated THP1 cells is stronger (>4.5 fold induction) as compared to the SFs triggered with recombinant TNF-α alone (3-fold induction) and almost equals the 5-fold induction obtained by a mixture of 3 purified cytokines (TNF-α, IL1βb, OSM). […] As the role of TNF-α in the RA pathogenesis is validated (TNF-α-blockers such as Infliximab and Etanercept show some efficacy in the treatment of RA patients) and the THP-1 cells are representative for monocytes/macrophages present in the joint of RA patients, the TNF-α-based trigger mixture prepared by contacting THP-1 cells with TNF-α will contain factors present in the joints of RA patients and subsequently is relevant to RA. This TNF-α-based complex trigger, further referred to as the ‘complex trigger’, will further be used as basis for the ‘MMP assay’. […]"}, "[2]": {"system": "TNF alpha", "assay": "Septic shock model (LPS-induced TNF release)", "format": "in vivo, BALB/cJ female mice", "conditions": "after injection of LPS, benchmark, FIG. 7", "method": "Six BALB/cJ female mice (20 g) per group are treated at the intended dosing once, po. Thirty minutes later, LPS (15 μg/kg; E. coli serotype 0111:B4) is injected ip. Ninety minutes later, mice are euthanized and blood is collected. Circulating TNF alpha levels are determined using commercially available ELISA kits. Dexamethasone (5 μg/kg) is used as a reference anti-inflammatory compound."}}}
{"compound": "C[C@@H]1C[C@H]2[C@@H]3CCC4=CC(=O)C=C[C@]4(C)[C@@]3(F)[C@@H](O)C[C@]2(C)[C@@]1(O)C(=O)CO", "note": "[dexamethasone, reference compound]", "values": [{"measurement": "IC50", "setting": "[1]", "result": "~1", "unit": "nM"}, {"measurement": "percentage inhibition of TNF alpha release", "setting": "[2]", "result": 100, "unit": "%"}]}
